Patent US20130102619A1, “2-PYRIDYLOXY-4-NITRILE OREXIN RECEPTOR ANTAGONISTS” (priority 2011, published 2013)

How the values were obtained:
rat orexin-1 receptor = rat orexin-1 receptor (Rattus norvegicus (Rat), UniProt P56718); assay: FLIPR Ca2+ Flux Assay, CHO cells expressing rat orexin-1 receptor; format: cell-based; conditions: 70 pM Ala-6,12 orexin-A agonist, read-out: hOX1R FLIPR IC50;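 note: concentration giving 50% inhibition of the agonist-induced calcium response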
Experimental: (§1) The utility of the compounds in accordance with the present invention as orexin receptor OX1R and/or OX2R antagonists may be readily determined without undue experimentation by methodology well known in the art, including the “FLIPR Ca^2+ Flux Assay” (Okumura et al., Biochem. Biophys. Res. Comm. 280:976-981, 2001). In a typical experiment the OX1 and OX2 receptor antagonistic activity of the compounds of the present invention was determined in accordance with the following experimental method. For intracellular calcium measurements, Chinese hamster ovary (CHO) cells expressing the rat orexin-1 receptor or the human orexin-2 receptor, are grown in Iscove's modified DMEM containing 2 mM L-glutamine, […], 1% hypoxanthine-thymidine supplement, 100 U/ml penicillin, 100 ug/ml streptomycin and 10% heat-inactivated fetal calf serum (FCS). The cells are seeded at 20,000 cells/well into Becton-Dickinson black 384-well clear bottom sterile plates coated with poly-D-lysine. All reagents were from GIBCO-Invitrogen Corp. The seeded plates are incubated overnight at 37° C. and 5% CO2. Ala-6,12 human orexin-A as the agonist is prepared as a 1 mM stock solution in 1% bovine serum albumin (BSA) and diluted in assay buffer (HBSS containing 20 mM HEPES, 0.1% BSA and 2.5 mM probenecid, pH7.4) for use in the assay at a final concentration of 70 pM. Test compounds are prepared as 10 mM stock solution in DMSO, then diluted in 384-well plates, first in DMSO, then assay buffer. On the day of the assay, cells are washed 3 times with 100 ul assay buffer and then incubated for 60 min (37° C., 5% CO2) in 60 ul assay buffer containing 1 uM Fluo-4AM ester, 0.02% pluronic acid, and 1% BSA. The dye loading solution is then aspirated and cells are washed 3 times with 100 ul assay buffer. 30 ul of that same buffer is left in each well. Within the Fluorescent Imaging Plate Reader (FLIPR, Molecular Devices), test compounds are added to the plate in a volume of 25 ul, incubated for 5 min and finally 25 ul of agonist is added. Fluorescence is measured for each well at 1 second intervals for 5 minutes and the height of each fluorescence peak is compared to the height of the fluorescence peak induced by 70 pM Ala-6,12 orexin-A with buffer in place of antagonist. […] Alternatively, compound potency can be assessed by a radioligand binding assay (described in Bergman et. al. Bioorg. Med. Chem. Lett. 2008, 18, 1425-1430) in which the inhibition constant (Ki) is determined in membranes prepared from CHO cells expressing either the OX1 or OX2 receptor. The intrinsic orexin receptor antagonist activity of a compound which may be used in the present invention may be determined by these assays.

human orexin-2 receptor [1] = molecular target: T1, human orexin-2 receptor (Homo sapiens (Human), UniProt O43614); assay: FLIPR Ca2+ Flux Assay, CHO cells expressing human orexin-2 receptor; format: cell-based; conditions: 70 pM Ala-6,12 orexin-A agonist, read-out: hOX2R FLIPR IC50
Experimental: as §1

human orexin-2 receptor [2] = molecular target: T1, human orexin-2 receptor; assay: radioligand binding assay, orexin-2 receptor (membranes from CHO cells); conditions: CHO cell membranes, read-out: hOX2 hKi
Experimental: as §1

OX1 receptor (hOX1) = OX1 receptor (hOX1) (Homo sapiens, UniProt O43613); assay: radioligand binding assay, orexin-1 receptor (membranes from CHO cells); conditions: CHO cell membranes, read-out: hOX1 hKi
Experimental: In a typical experiment the OX1 and OX2 receptor antagonistic activity of the compounds of the present invention was determined in accordance with the following experimental method. For intracellular calcium measurements, Chinese hamster ovary (CHO) cells expressing the rat orexin-1 receptor or the human orexin-2 receptor, are grown in Iscove's modified DMEM containing 2 mM L-glutamine, […], 1% hypoxanthine-thymidine supplement, 100 U/ml penicillin, 100 ug/ml streptomycin and 10% heat-inactivated fetal calf serum (FCS). The cells are seeded at 20,000 cells/well into Becton-Dickinson black 384-well clear bottom sterile plates coated with poly-D-lysine. All reagents were from GIBCO-Invitrogen Corp. The seeded plates are incubated overnight at 37° C. and 5% CO2. Ala-6,12 human orexin-A as the agonist is prepared as a 1 mM stock solution in 1% bovine serum albumin (BSA) and diluted in assay buffer (HBSS containing 20 mM HEPES, 0.1% BSA and 2.5 mM probenecid, pH7.4) for use in the assay at a final concentration of 70 pM. Test compounds are prepared as 10 mM stock solution in DMSO, then diluted in 384-well plates, first in DMSO, then assay buffer. On the day of the assay, cells are washed 3 times with 100 ul assay buffer and then incubated for 60 min (37° C., 5% CO2) in 60 ul assay buffer containing 1 uM Fluo-4AM ester, 0.02% pluronic acid, and 1% BSA. The dye loading solution is then aspirated and cells are washed 3 times with 100 ul assay buffer. 30 ul of that same buffer is left in each well. Within the Fluorescent Imaging Plate Reader (FLIPR, Molecular Devices), test compounds are added to the plate in a volume of 25 ul, incubated for 5 min and finally 25 ul of agonist is added. Fluorescence is measured for each well at 1 second intervals for 5 minutes and the height of each fluorescence peak is compared to the height of the fluorescence peak induced by 70 pM Ala-6,12 orexin-A with buffer in place of antagonist. […] Alternatively, compound potency can be assessed by a radioligand binding assay (described in Bergman et. al. Bioorg. Med. Chem. Lett. 2008, 18, 1425-1430) in which the inhibition constant (Ki) is determined in membranes prepared from CHO cells expressing either the OX1 or OX2 receptor. The intrinsic orexin receptor antagonist activity of a compound which may be used in the present invention may be determined by these assays.

rat orexin-1 receptor, sequence (P56718 whole entry): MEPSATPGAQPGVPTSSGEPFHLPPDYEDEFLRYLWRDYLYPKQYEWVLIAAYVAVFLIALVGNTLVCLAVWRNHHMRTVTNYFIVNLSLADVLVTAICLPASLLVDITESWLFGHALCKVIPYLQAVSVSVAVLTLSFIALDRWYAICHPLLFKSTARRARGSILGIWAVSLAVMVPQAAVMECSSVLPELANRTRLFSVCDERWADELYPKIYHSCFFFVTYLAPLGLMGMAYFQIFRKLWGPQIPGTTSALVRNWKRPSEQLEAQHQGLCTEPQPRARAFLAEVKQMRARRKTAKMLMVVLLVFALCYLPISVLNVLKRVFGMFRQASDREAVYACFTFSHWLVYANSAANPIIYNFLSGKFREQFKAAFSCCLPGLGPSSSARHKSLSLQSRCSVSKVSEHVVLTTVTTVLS
T1 sequence (O43614 whole entry): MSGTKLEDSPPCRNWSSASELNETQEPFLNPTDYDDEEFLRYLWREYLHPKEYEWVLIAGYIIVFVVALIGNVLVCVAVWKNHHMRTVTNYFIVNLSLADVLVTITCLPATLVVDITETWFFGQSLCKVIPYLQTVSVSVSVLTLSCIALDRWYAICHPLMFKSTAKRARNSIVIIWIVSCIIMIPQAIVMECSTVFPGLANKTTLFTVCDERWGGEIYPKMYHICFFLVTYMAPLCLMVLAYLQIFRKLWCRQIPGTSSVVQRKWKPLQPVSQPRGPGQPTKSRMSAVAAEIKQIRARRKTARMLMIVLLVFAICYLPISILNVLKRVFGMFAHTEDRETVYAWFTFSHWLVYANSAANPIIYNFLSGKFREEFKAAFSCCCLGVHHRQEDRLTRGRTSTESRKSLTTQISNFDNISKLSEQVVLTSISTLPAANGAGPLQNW

SMILES	IC50 (rat orexin-1 receptor)	IC50 (human orexin-2 receptor [1])	Ki (human orexin-2 receptor [2])	Ki (OX1 receptor (hOX1))
C[C@@H]1CC[C@@H](Oc2cc(C#N)ccn2)CN1C(=O)c1ccc(F)cc1-n1nccn1 [Example 8, 2-{[(3R,6R)-1-{[4-fluoro-2-(2H-1,2,3-triazol-2-yl)phenyl]carbonyl}-6-methylpiperidin-3-yl]oxy}pyridine-4-carbonitrile]	> 10000 nM	29 nM	3.5 nM	2910 nM
Cc1ccc(C(=O)N2C[C@H](Oc3cc(C#N)ccn3)CC[C@H]2C)c(-n2nccn2)c1 [Example 9, 2-{[(3R,6R)-6-methyl-1-{[4-methyl-2-(2H-1,2,3-triazol-2-yl)phenyl]carbonyl}piperidin-3-yl]oxy}pyridine-4-carbonitrile]	7150 nM	22 nM	3.7 nM	1250 nM
C[C@@H]1CC[C@@H](Oc2cc(C#N)ccn2)CN1C(=O)c1ccsc1-n1nccn1 [Example 10, 2-{[(3R,6R)-6-methyl-1-{[2-(2H-1,2,3-triazol-2-yl)thiophen-3-yl]carbonyl}piperidin-3-yl]oxy}pyridine-4-carbonitrile]	> 10000 nM	29 nM	5.9 nM	3570 nM
C[C@@H]1CC[C@@H](Oc2cc(C#N)ccn2)CN1C(=O)c1sccc1-n1nccn1 [Example 14, 2-{[(3R,6R)-6-methyl-1-{[3-(2H-1,2,3-triazol-2-yl)thiophen-2-yl]carbonyl}piperidin-3-yl]oxy}pyridine-4-carbonitrile]	> 10000 nM	65 nM	15 nM	5340 nM
C[C@@H]1CC[C@@H](Oc2cc(C#N)ccn2)CN1C(=O)c1cc(Br)ccc1-n1nccn1 [Example 15, 2-{[(3R,6R)-1-{[5-bromo-2-(2H-1,2,3-triazol-2-yl)phenyl]carbonyl}-6-methylpiperidin-3-yl]oxy}pyridine-4-carbonitrile]	1040 nM	62 nM	9.1 nM	265 nM
COc1ccc(C(=O)N2C[C@H](Oc3cc(C#N)ccn3)CC[C@H]2C)c(-n2nccn2)n1 [Example 17, 2-{[(3R,6R)-1-{[6-methoxy-2-(2H-1,2,3-triazol-2-yl)pyridin-3-yl]carbonyl}-6-methylpiperidin-3-yl]oxy}pyridine-4-carbonitrile]	> 10000 nM	82 nM	15 nM	5640 nM
COc1ccc(C(=O)N2C[C@H](Oc3cc(C#N)ccn3)CC[C@H]2C)c(C2CC2)n1 [Example 20, 2-({(3R,6R)-1-[(2-cyclopropyl-6-methoxypyridin-3-yl)carbonyl]-6-methylpiperidin-3-yl}oxy)pyridine-4-carbonitrile]	> 10000 nM	67 nM	11.5 nM	12600 nM
C[C@@H]1CC[C@@H](Oc2cc(C#N)ccn2)CN1C(=O)c1c(F)cccc1-n1nccn1 [Example 22, 2-{[(3R,6R)-1-{[2-fluoro-6-(2H-1,2,3-triazol-2-yl)phenyl]carbonyl}-6-methylpipeidin-3-yl]oxy}pyridine-4-carbonitrile]	5750 nM	23 nM	3.4 nM	1790 nM
C[C@@H]1CC[C@@H](Oc2cc(C#N)ccn2)CN1C(=O)c1ccc(Cl)cc1-n1nccn1 [Example 29, 2-{[(3R,6R)-1-{[4-chloro-2-(2H-1,2,3-triazol-2-yl)phenyl]carbonyl}-6-methylpiperidin-3-yl]oxy}pyridine-4-carbonitrile]	3400 nM	12 nM	1.3 nM	1100 nM
C[C@@H]1CC[C@@H](Oc2cc(C#N)ccn2)CN1C(=O)c1sccc1-c1ncccn1 [Example 31]	> 10000 nM	38 nM	5.9 nM	2720 nM
C[C@@H]1CC[C@@H](Oc2cc(C#N)ccn2)CN1C(=O)c1cccc(F)c1-c1ncccn1 [Example 33, 2-({(3R,6R)-1-[(3-fluoro-2-pyrimidin-2-ylphenyl)carbonyl]-6-methylpiperidin-3-yl}oxy)pyridine-4-carbonitrile]	> 10000 nM	52 nM	12.4 nM	1690 nM
C[C@@H]1CC[C@@H](Oc2cc(C#N)ccn2)CN1C(=O)c1ccc(F)cc1-c1ncccn1 [Example 34, 2-({(3R,6R)-1-[(4-fluoro-2-pyrimidin-2-ylphenyl)carbonyl]-6-methylpiperidin-3-yl}oxy)pyridine-4-carbonitrile]	> 10000 nM	48 nM	3.5 nM	868 nM
C[C@@H]1CC[C@@H](Oc2cc(C#N)ccn2)CN1C(=O)c1cc(F)ccc1-c1ncccn1 [Example 35, 2-({(3R,6R)-1-[(5-fluoro-2-pyrimidin-2-ylphenyl)carbonyl]-6-methylpiperidin-3-yl}oxy)pyridine-4-carbonitrile]	8040 nM	31 nM	1 nM	658 nM
C[C@@H]1CC[C@@H](Oc2cc(C#N)ccn2)CN1C(=O)c1c(F)cccc1-c1ncccn1 [Example 36, 2-({(3R,6R)-1-[(2-fluoro-6-pyimidin-2-ylphenyl)carbonl]-6-methylpiperidin-3-yl}oxy)pyridine-4-carbonitrile]	> 10000 nM	47 nM	2.1 nM	930 nM
